The text below walks through data of patent publication US20170158702A1, “MULTIVALENT RAS BINDING COMPOUNDS” (KYRAS THERAPEUTICS, INC., priority 2015, published 2017).

Assay type in all cases: cell-based
Assay [1] deals with NCI-H460. Nature of the assay: Viability assay with NCI-H460 (CellTiter-Glo cytotoxicity assay, 72 h). The note with it: NCI-H460 cell line, 72 h after compounds addition. The method, boiled down: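 NCI-H460 cells, RPMI 1640 + 10% FBS, seeded 1200/well and adhered overnight, then exposed to compounds at 9 points, 2-fold dilution, in triplicate, 0.5% DMSO final. Cellular ATP measured by CellTiter-Glo luminescence 72 h after addition.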
(In general: Cellular ATP, detected with luciferase, serves as a proxy for viable cell number.)

The subject of assay [2] is MIA PaCa-2. Nature of the assay: Viability assay with MIA PaCa-2. The note with it: MIA PaCa-2, viability assay per Example 57. The gist of the method:
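MIA PaCa-2 cells were seeded at 1200/well, allowed to adhere overnight, then treated in triplicate with 9-point 2-fold compound dilutions at 0.5% final DMSO. Viability was measured as cellular ATP by CellTiter-Glo luminescence 72 h after compound addition.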

In assay [3] the test system is NCI-H2023. Nature of the assay: Viability assay with NCI-H2023. The note with it: NCI-H2023, viability assay per Example 57. As for the experimental part: NCI-H460 (Epithelial lung tissue; carcinoma; large cell lung cancer) were cultured in RPMI Medium 1640 (Invitrogen-22400105) supplemented with 10% fetal bovine serum (FBS; Invitrogen-10099141). All the cell lines were maintained in a humidified incubator at 37° C. with 5% CO2. Cell culture media and supplements were purchased from Invitrogen, and tissue culture flasks were purchased from Corning, 96-well plates were purchased from Greiner. CellTiter-Glo Luminescent Cell Viability Assay kits were purchased from Promega (Promega-G7573), cells counter Vi-Cell was purchased from Beckman, D300e digital dispenser was purchased from Tecan, detection instrument Envision was purchased from PerkinElmer.
Paclitaxel was purchased from SELLECK, test compounds, such as any one of the compounds disclosed herein, attained solubility in DMSO and when diluted into culture media. DMSO, solutions containing the test compounds, and culture media were warmed to 37° C. or room temperature for the solution preparation and dilutions.
NCI-H460 Cell line were seeded in 96-well plates (1200/well) and allowed to adhere to overnight (100 uL/well), for drug treatments with 2 fold dilution, 9 dose points, triplicates or vehicle control, compound stock solutions were prepared in DMSO and use D300e digital dispenser to add compounds to the wells to give the indicated final drug concentrations. Final DMSO concentration was 0.5%. Cellular ATP concentrations were assessed by using the CellTiter-Glo Cell Viability Assay as per the manufacturer's instructions 72 h after compounds addition. Additional cells lines were assayed with any one of the compounds disclosed herein according to the procedures described for the viability assay with NCI-H460.
A viability assay with NCI-H2023 (stage 3A, adenocarcinoma; non-small cell lung cancer) was performed with compounds listed in Table 16 according to the procedures described in Example 57.

Counter-ions that a name gives are not always drawn.

As to `N#Cc1cccc(-c2cn(CCCN)c3ccc(CN4CCN(Cc5c(Cl)cccc5Cl)CC4)cc23)c1` [C13; HCl], the EC50 in assay [1], in assay [2] and in assay [3] was at most 5 µM throughout.

As to `NCCCn1cc(-c2ccc(OC(F)(F)F)cc2)c2cc(CN3CCN(S(=O)(=O)c4ccccc4Cl)CC3)ccc21` [C14; HCl], the EC50 in assay [1], in assay [2] and in assay [3] was at most 5 µM in each case.

For `NCCCn1cc(-c2ccc(OC(F)(F)F)cc2)c2cc(CN3CCN(C(=O)c4ccccc4Cl)CC3)ccc21` [C15; HCl], the EC50 in assay [1], in assay [2] and in assay [3] was at most 5 µM each time.

`CNCc1ccc2c(c1)c(-c1ccc(OC(F)(F)F)cc1)cn2CCCNC(=O)C1(N)CCNCC1` [C16; HCl]: the EC50 in assay [1], in assay [2] and in assay [3] was over 30 µM in each case.

For `NCCCn1cc(-c2ccc(OC(F)(F)F)cc2)c2cc(CN3CC4CCC(C3)N4Cc3ccccc3Cl)ccc21` [C17; HCl], the EC50 in assay [1], in assay [2] and in assay [3] was at most 5 µM each time.

Turning to `NCCCn1cc(-c2ccc(N)nc2)c2cc(CN3CCN(Cc4c(Cl)cccc4Cl)CC3)ccc21` [C18; HCl], the EC50 in assay [1], in assay [2] and in assay [3] was at most 5 µM each time.

On to `NCCCn1cc(-c2ccc(OC(F)(F)F)cc2)c2cc(CN3CCN(Cc4cccc(F)c4Cl)CC3)ccc21` [C19; HCl], for which the concentration for a half-maximal effect (EC50) in assay [1], in assay [2] and in assay [3] was at most 5 µM each time.

As to `CNCCCn1cc(-c2ccc(OC(F)(F)F)cc2)c2cc(CN3CCN(Cc4c(Cl)cccc4Cl)CC3)ccc21` [C21; Formic acid], the concentration giving a half-maximal response (EC50) in assay [1], in assay [2] and in assay [3] was at most 5 µM in each case.

For the compound `NCCCn1cc(-c2ccc(F)cc2)c2cc(CN3CCN(Cc4c(Cl)cccc4Cl)CC3)ccc21` [C23; Formic acid], the EC50 in assay [1], in assay [2] and in assay [3] was at most 5 µM throughout.

As to `NC1(C(=O)NCCCn2cc(-c3ccccc3)c3cc(CN4CCN(Cc5c(Cl)cccc5Cl)CC4)ccc32)CCNCC1` [C24; HCl], the EC50 in assay [1], in assay [2] and in assay [3] was at most 5 µM each time.

As for `NCCNCCCn1cc(-c2ccc(OC(F)(F)F)cc2)c2cc(CN3CCN(Cc4c(Cl)cccc4Cl)CC3)ccc21` [C26; HCl], the EC50 in assay [1], in assay [2] and in assay [3] was at most 5 µM throughout.

Take `CCN1CCN(Cc2ccc3c(c2)c(-c2ccc(OC(F)(F)F)cc2)cn3CCCNC(=O)C2(N)CCNCC2)CC1` [C27; HCl]: the EC50 in assay [1] is over 30 µM; in assay [2], 10 to 30 µM; in assay [3], 10 to 30 µM.

In the case of `CN(C)Cc1ccc2c(c1)c(-c1ccc(OC(F)(F)F)cc1)cn2CCCNC(=O)C1(N)CCNCC1` [C29; HCl], the EC50 was 10 to 30 µM in assay [1], over 30 µM in assay [2] and 10 to 30 µM in assay [3].

Take `NC1CCC(c2cn(-c3ccc(OC(F)(F)F)cc3)c3cc(CN4CCN(Cc5c(Cl)cccc5Cl)CC4)ccc23)C1` (stereo not drawn) [C30; HCl]: the EC50 in assay [1], in assay [2] and in assay [3] was at most 5 µM each time.

As for `NCCCn1cc(-c2ccc(OC(F)(F)F)cc2)c2cc(CN3CC4CCC(C3)N4Cc3c(Cl)cccc3Cl)ccc21` [C32; HCl], the EC50 in assay [1], in assay [2] and in assay [3] was at most 5 µM each time.

As to `N#Cc1ccc(-c2cn(CCCN)c3ccc(CN4CCN(Cc5c(Cl)cccc5Cl)CC4)cc23)cc1` [C33; HCl], the concentration for a half-maximal effect (EC50) in assay [1], in assay [2] and in assay [3] was at most 5 µM in each case.

Turning to `CC(C)N1CCN(Cc2ccc3c(c2)c(-c2ccc(OC(F)(F)F)cc2)cn3CCCNC(=O)C2(N)CCNCC2)CC1` [C34; HCl], the EC50 in assay [1], in assay [2] and in assay [3] was 10 to 30 µM in each case.

As to `NC1(C(=O)NCCCCn2cc(-c3ccc(OC(F)(F)F)cc3)c3cc(CN4CCN(Cc5c(Cl)cccc5Cl)CC4)ccc32)CCNCC1` [C35; HCl], the EC50 in assay [1], in assay [2] and in assay [3] was at most 5 µM throughout.

For `NC1(C(=O)NCCCn2cc(-c3ccc(O)cc3)c3cc(CN4CCN(Cc5c(Cl)cccc5Cl)CC4)ccc32)CCNCC1` [C36; HCl], the concentration giving a half-maximal response (EC50) in assay [1] is over 30 µM; in assay [2] it was 10 to 30 µM; in assay [3] it was over 30 µM.

Take `NCCCn1cc(-c2ccccc2)c2cc(CN3CCN(Cc4c(Cl)cccc4Cl)CC3)ccc21` [C37; HCl]: the EC50 in assay [1] is at most 5 µM; in assay [2] it was 5 to 10 µM; in assay [3] it was 5 to 10 µM.

Regarding `NC1(C(=O)NCCCn2cc(-c3ccc(OC(F)(F)F)cc3)c3cc(CN4CCN(c5ccccc5)CC4)ccc32)CCNCC1` [C38; HCl], the EC50 in assay [1], in assay [2] and in assay [3] was at most 5 µM throughout.

Turning to `Cc1ccc(-c2cn(CCCNC(=O)C3(N)CCNCC3)c3ccc(CN4CCN(Cc5c(Cl)cccc5Cl)CC4)cc23)cc1` [C39; HCl], the EC50 in assay [1], in assay [2] and in assay [3] was at most 5 µM in each case.

Consider `N#Cc1ccc(-c2cn(CCCNC(=O)C3(N)CCNCC3)c3ccc(CN4CCN(Cc5c(Cl)cccc5Cl)CC4)cc23)cc1` [C40; HCl], for which the EC50 in assay [1], in assay [2] and in assay [3] was at most 5 µM each time.

Consider `NC1(C(=O)NCCCn2cc(-c3ccc(OC(F)(F)F)cc3)c3cc(CN4CCN(Cc5c(Cl)cccc5Cl)CC4)ccc32)CCNCC1` [C41; Trifluoroacetic acid], for which the 50% effective concentration (EC50) in assay [1], in assay [2] and in assay [3] was at most 5 µM throughout.

Regarding `N[C@H]1CC[C@H](n2cc(-c3ccc(OC(F)(F)F)cc3)c3cc(CN4CCN(Cc5c(Cl)cccc5Cl)CC4)ccc32)C1` [C42; HCl], the half-maximal effective concentration (EC50) in assay [1], in assay [2] and in assay [3] was at most 5 µM in each case.

Regarding `NCCCn1cc(-c2ccc(O)cc2)c2cc(CN3CCN(Cc4c(Cl)cccc4Cl)CC3)ccc21` [C44; HCl], the concentration giving a half-maximal response (EC50) in assay [1], in assay [2] and in assay [3] was at most 5 µM each time.

For the compound `CC(C)(N)C(=O)NCCCn1cc(-c2ccc(OC(F)(F)F)cc2)c2cc(CN3CCN(Cc4c(Cl)cccc4Cl)CC3)ccc21` [C46; HCl], the EC50 in assay [1], in assay [2] and in assay [3] was at most 5 µM each time.

On to `CC(=O)NCCCn1cc(-c2ccc(OC(F)(F)F)cc2)c2cc(CN3CCN(Cc4c(Cl)cccc4Cl)CC3)ccc21` [C47; Formic acid], for which the EC50 in assay [1], in assay [2] and in assay [3] was at most 5 µM each time.

On to `NC1(C(=O)NCCCn2cc(-c3ccc(OC(F)(F)F)cc3)c3cc(CN4CCNCC4)ccc32)CCNCC1` [C48; HCl], for which the 50% effective concentration (EC50) in assay [1], in assay [2] and in assay [3] was over 30 µM throughout.

Take `COc1cccc(OC)c1CN1CCN(Cc2ccc3c(c2)c(-c2ccc(OC(F)(F)F)cc2)cn3CCCNC(=O)C2(N)CCNCC2)CC1` [C49; HCl]: the EC50 in assay [1], in assay [2] and in assay [3] was 5 to 10 µM throughout.

Take `NCCCn1cc(-c2ccc(N)cc2)c2cc(CN3CCN(Cc4c(Cl)cccc4Cl)CC3)ccc21` [C50; HCl]: the EC50 in assay [1], in assay [2] and in assay [3] was at most 5 µM throughout.

Take `Cc1ccc(-c2cn(CCCN)c3ccc(CN4CCN(Cc5c(Cl)cccc5Cl)CC4)cc23)cc1` [C51; HCl]: the EC50 in assay [1], in assay [2] and in assay [3] was at most 5 µM throughout.

Regarding `NCC(=O)NCCCn1cc(-c2ccc(OC(F)(F)F)cc2)c2cc(CN3CCN(Cc4c(Cl)cccc4Cl)CC3)ccc21` [C52; HCl], the EC50 in assay [1], in assay [2] and in assay [3] was at most 5 µM in each case.

`Cc1cccc(C)c1CN1CCN(Cc2ccc3c(c2)c(-c2ccc(OC(F)(F)F)cc2)cn3CCCNC(=O)C2(N)CCNCC2)CC1` [C54; HCl]: the half-maximal effective concentration (EC50) in assay [1], in assay [2] and in assay [3] was at most 5 µM in each case.

As to `NC1(C(=O)NCCCn2cc(-c3ccc(OC(F)(F)F)cc3)c3cc(CN4CCN(Cc5c(F)cccc5F)CC4)ccc32)CCNCC1` [C55; HCl], the concentration for a half-maximal effect (EC50) in assay [1], in assay [2] and in assay [3] was at most 5 µM each time.

With `NC1(C(=O)NCCCn2cc(-c3ccc(OC(F)(F)F)cc3)c3cc(CN4C5CCC4CN(Cc4c(Cl)cccc4Cl)C5)ccc32)CCNCC1` [C56; HCl], the EC50 in assay [1], in assay [2] and in assay [3] was at most 5 µM in each case.

The EC50 is the concentration needed to bring the measured effect to its halfway point. Lower therefore signals greater potency.
